Experimental findings from ChEMBL document CHEMBL4393659, “Insights into the chemistry and therapeutic potential of furanones: A versatile pharmacophore” (Eur J Med Chem, 2019) are described below.

Data set [1] concerns Salmonella typhimurium. Description: Inhibition of biofilm formation in Salmonella enterica subsp. enterica serovar Typhimurium 14028S incubated for 48 hrs by crystal violet staining based assay. In kind it is functional, organism-based.
For data set [2], the species on record is Rattus norvegicus. Description: Antiarthritic activity in adjuvant-induced Sprague-Dawley rat. It is filed as functional.
In data set [3] the test system is Rattus norvegicus. The experiment in a line: Antiinflammatory activity in Sprague-Dawley rat assessed as inhibition of carrageenan-induced paw edema at 3 mg/kg , po relative to control. In kind it is functional. On the technique in general: In the carrageenan paw model, swelling and tenderness develop within hours.
In data set [4] the test system is Staphylococcus aureus. Description: Antibacterial activity against Staphylococcus aureus. In kind it is functional.
The test system of data set [5] is Escherichia coli. Description: Antibacterial activity against Escherichia coli. In kind it is functional.
Data set [6] relates to NIH3T3. Description: Cytotoxicity against mouse NIH/3T3 cells assessed as reduction in cell viability incubated for 48 hrs by SRB method. It is filed as functional. Conditions: NIH3T3, 48 h, read-out: ED50 (the source's name).
The test system of data set [7] is A549. The experiment in a line: Cytotoxicity against human A549 cells assessed as reduction in cell viability incubated for 48 hrs by SRB method. It is filed as functional. Conditions: A549, 48 h, read-out: ED50 (the source's name).
Data set [8] has as its system SK-OV-3. The experiment in a line: Cytotoxicity against human SKOV3 cells assessed as reduction in cell viability incubated for 48 hrs by SRB method. In kind it is functional. To be noted: SK-OV-3, 48 h, read-out: ED50 (the source's name).
The subject of data set [9] is Rattus norvegicus. The experiment in a line: Antiinflammatory activity in po dosed rat. It is filed as functional.
Data set [10] is described as follows: Ulcerogenicity in Wistar rat assessed as gastric lesions by measuring ulcer severity index at 60 mg/kg , po measured after 17 hrs relative to ibuprofen. In kind it is toxicity, organism-based. Conditions: in vivo.
Data set [11] relates to Plasmodium falciparum. The experiment in a line: Antimalarial activity against Plasmodium falciparum infected in human blood assessed as reduction in cell viability incubated for 72 hrs by Giemsa stain based assay. In kind it is functional.
Data set [12] has as its system Rattus norvegicus. Description: Antiinflammatory activity in Wistar rat assessed as inhibition of carrageenan-induced edema measured upto 4 hrs. It is filed as functional.
Data set [13] deals with Mus musculus. The experiment in a line: Anticonvulsant activity in ip dosed mouse assessed as reduction in PTZ-induced seizures pretreated for 30 mins followed by PTZ addition. In kind it is functional.
Data set [14] relates to Escherichia coli. The experiment in a line: Antibacterial activity against Escherichia coli assessed as inhibition zone incubated for 24 hrs by disk diffusion method relative to control. In kind it is functional.
The target of data set [15] is GABA-A receptor; anion channel. Description: Displacement of [35S]TBPS from GABAA (unknown origin) incubated for 90 mins by scintillation counting method. In kind it is protein-complex assay, Homo sapiens.
The subject of data set [16] is Mus musculus. Description: Anticonvulsant activity in ip dosed CF-1 mouse assessed as protection against PTZ-induced seizures measured after 30 mins […]. In kind it is functional.
The target in data set [17] is Prostaglandin G/H synthase 2 (Homo sapiens, UniProt P35354). The experiment in a line: Inhibition of recombinant human COX2 expressed in baculovirus infected Sf9 cells.
For data set [18], the system named is Candida albicans. The experiment in a line: Antifungal activity against Candida albicans ATCC 90028 assessed as reduction in fungal cell viability measured after 24 and 48 hrs by spectrophotometry. In kind it is functional.
For data set [19], the target named is GABA-A receptor; alpha-1/beta-2/gamma-2 (Homo sapiens) (UniProt P14867+P47870+P18507). Description: Positive allosteric modulation of recombinant GABAA alpha1beta2gamma2 (unknown origin) expressed in Xenopus laevis oocytes assessed as increase GABA-stimulated current amplitude at 200 uM by electrophysiological two-electrode voltage clamp method. In kind it is cell-based. A general note: Two-electrode voltage clamp holds a large cell at a set potential and records current.

A short description of data set [20]: Acute toxicity in Swiss albino mouse assessed as reduction in mortality of animal at 200 to 800 mg/kg , ip observed for 8 days. It is filed as organism-based. Conditions: in vivo.
For data set [21], the system named is Candida albicans. The experiment in a line: Antifungal activity against Candida albicans assessed as reduction in fungal cell viability incubated for 48 hrs by broth microdilution method. It is filed as functional.
The subject of data set [22] is Staphylococcus aureus. Description: Antibacterial activity against Staphylococcus aureus ATCC 29737 assessed as reduction in bacterial cell viability incubated for 24 hrs by broth microdilution method. To be noted: ATCC 29737, 24 h. It is filed as functional.
Data set [23] has as its system Aspergillus niger. Description: Antifungal activity against Aspergillus niger assessed as reduction in fungal cell viability incubated for 48 hrs by broth microdilution method. It is filed as functional. In general terms: Dilution methods test growth across graded concentrations, often in twofold steps.
Data set [24] has as its system Pseudomonas aeruginosa. Description: Antibacterial activity against Pseudomonas aeruginosa NCLM-2035 assessed as reduction in bacterial cell viability incubated for 24 hrs by broth microdilution method. To be noted: NCLM-2035, 24 h. It is filed as functional.
Data set [25] deals with Rhizopus arrhizus. The experiment in a line: Antifungal activity against Rhizopus oryzae assessed as reduction in fungal cell viability incubated for 48 hrs by broth microdilution method. It is filed as functional.
Data set [26] has as its system Escherichia coli. Description: Antibacterial activity against Escherichia coli ATCC 8739 assessed as reduction in bacterial cell viability incubated for 24 hrs by broth microdilution method. To be noted: ATCC 8739, 24 h. It is filed as functional.
The test system of data set [27] is Mycobacterium tuberculosis. The experiment in a line: Antimycobacterial activity against Mycobacterium tuberculosis H37Rv. In kind it is functional, organism-based.

Values after ≈ are worked out from the molar mass of the structure shown.

Sequence of Prostaglandin G/H synthase 2 (P35354 whole entry): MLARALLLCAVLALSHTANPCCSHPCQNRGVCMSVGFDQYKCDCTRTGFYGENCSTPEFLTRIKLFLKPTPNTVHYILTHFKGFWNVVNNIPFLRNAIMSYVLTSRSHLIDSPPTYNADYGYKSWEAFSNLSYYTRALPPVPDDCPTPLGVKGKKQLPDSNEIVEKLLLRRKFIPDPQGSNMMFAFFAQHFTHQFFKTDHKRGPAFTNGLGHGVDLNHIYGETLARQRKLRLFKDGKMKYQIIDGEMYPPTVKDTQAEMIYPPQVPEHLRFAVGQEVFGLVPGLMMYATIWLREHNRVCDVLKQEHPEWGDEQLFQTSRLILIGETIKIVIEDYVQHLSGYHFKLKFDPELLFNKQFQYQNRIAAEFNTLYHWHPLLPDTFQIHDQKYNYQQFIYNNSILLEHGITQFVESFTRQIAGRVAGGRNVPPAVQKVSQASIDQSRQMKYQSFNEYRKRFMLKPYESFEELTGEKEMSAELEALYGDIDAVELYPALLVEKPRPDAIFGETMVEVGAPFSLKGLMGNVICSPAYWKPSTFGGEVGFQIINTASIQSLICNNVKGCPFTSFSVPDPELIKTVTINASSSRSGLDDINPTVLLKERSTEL

A word on the IC50: it is the concentration needed to halve the response being measured. For `O=C1C=CC(=C(Br)Br)O1`, the IC50 in data set [1] turned out to be 15 µM.

A word on the ED50: it is the dose at which the effect has come halfway, by size or by number of responders. Broadly, the inhibition in vivo is the relative decrease from the control value, in per cent. For the compound `CC1(C)OC(c2ccc(S(C)(=O)=O)cc2)=C(c2cccc(C(F)(F)F)c2)C1=O`, in data set [2], the median effective dose (ED50) came out at 0.06 mg/kg/day. The inhibition in vivo at 3 mg/kg in data set [3] came to 32%. By MIC is commonly meant the lowest concentration that inhibits growth of the organism. On to `COC(=O)C(Cl)C1(Cl)OC(c2ccc(Cl)cc2)=C(Cl)C1=O` (configuration not stated), for which the results for the MIC in data set [4] and in [5] were 15.6 µg/mL (≈ 42.2 µM) and 62.5 µg/mL (≈ 169 µM), respectively.

On to `COc1cc(/C=C2\C=CC(=O)O2)c(OC)c2c1C(=O)c1ccccc1C2=O`, for which the EC50 in data set [6], in data set [7] and in data set [8] was 9.2 to 16.5 µg/mL (≈ 25.4 to 45.5 µM) throughout. In turn, `CC1(O)OC(=O)C(c2ccc(Cl)cc2)=C1c1ccc(S(C)(=O)=O)cc1` (configuration not stated) had an ED50 in [9] of 1.4 mg/kg. Regarding `CC(C)Cc1ccc(C2=C/C(=C\c3ccccc3Cl)C(=O)O2)cc1`, in data set [10], the UI is 0.2.

`O=C1C(Br)=C(c2ccccc2)O/C1=N\C12CC3CC(CC(C3)C1)C2` showed a minimal inhibitory concentration (MIC) in [5] of 15.6 µg/mL (≈ 40.4 µM). As to `O=C1C=C(c2ccc(Br)cc2)O/C1=N\C12CC3CC(CC(C3)C1)C2`, it took 31 µg/mL (≈ 80.3 µM) to inhibit growth in data set [5] (MIC). For the compound `COc1cccc2cc(/C=C3/CC(c4ccc(Cl)cc4)OC3=O)c(Cl)nc12` (configuration not stated), in data set [11], the MIC is 0.5 to 0.72 µg/mL (≈ 1.25 to 1.8 µM). Turning to `COc1cccc2cc(/C=C3/CC(c4ccc(Cl)c(Cl)c4)OC3=O)c(Cl)nc12` (configuration not stated), the MIC in data set [11] is 0.5 to 0.72 µg/mL (≈ 1.15 to 1.66 µM). `O=C1OC(c2ccc3ccccc3c2)=C/C1=C\c1cc2ccccc2nc1Cl`: the “inhibition (INH)” value in data set [12] was 56 - 63%. For `CCC1(CC)CC(CCNC(=O)c2ccccc2)OC1=O` (configuration not stated), the ED50 in data set [13] lay within 89.9 to 285 mg/kg. For the compound `COc1ccc(C2=C/C(=C/c3ccc(N(C)C)cc3)C(=O)O2)cc1`, the “inhibition zone (IZ)” value in data set [14] amounted to 16 mm. Regarding `Cc1ccc2cc(/C=C3\C=C(c4ccc5ccccc5c4)OC3=O)c(Cl)nc2c1`, the “inhibition (INH)” value in data set [12] was 56 - 63%. The same measure, in the same setting: then `O=C1OC(c2ccc3ccccc3c2)=C/C1=C\c1cc2ccc(Cl)cc2nc1Cl`, with 56 - 63%.

Regarding `C/C(C#N)=C1/OC(c2ccc(C)cc2)=C(Cl)C1=O`, the results for the minimum inhibitory concentration (MIC) in [4] and in data set [5] were 15.6 µg/mL (≈ 60.1 µM) and 62.5 µg/mL (≈ 241 µM), respectively. Compound `CC1(CC(F)(F)F)COC(=O)C1` (configuration not stated) gave an IC50 in data set [15] of 8 µM. Besides, the CD50 in data set [16] came out at 3 mg/kg. Compound `CC1(O)OC(=O)C(c2ccccc2)=C1c1ccc(S(C)(=O)=O)cc1` (configuration not stated) came in with an ED50 in [9] of 1.5 mg/kg. Turning to `CS(=O)(=O)c1ccc(C2=C3c4ccccc4CCC3OC2=O)cc1` (configuration not stated), the 50% inhibitory concentration (IC50) in [17] fell in the range of 0.5 to 0.6 µM.

For the compound `CC(=O)OCC1C=C(c2ccc(Cl)c(Cl)c2)C(=O)O1` (configuration not stated), in data set [18], the minimum inhibitory concentration (MIC) was 2 µg/mL (≈ 6.64 µM). Turning to `CC(C)Cc1ccc(C2=C/C(=C\c3ccc(F)cc3)C(=O)O2)cc1`, the UI in data set [10] came to 0.1.

Consider `O=C1C=C(Br)/C(=C/Br)O1`, for which the IC50 in [1] was 10 µM. As for `C=CCOC(=O)NC1COC(=O)C1(CCC)CCC` (configuration not stated), the Activity in [19] was 420%.

The LD50 is the dose at which mortality reaches 50%. As for `COc1cc(C2OC(=O)CC2C(C)=O)cc(OC)c1O` (configuration not stated), the median lethal dose (LD50) at 192 h in data set [20] was found to be 200 mg/kg.

For the compound `O=C1OC(c2ccc(Cl)cc2)=C/C1=C\c1ccc(F)cc1`, the MIC in [21], in [22], in [23], in data set [24], in [25] and in data set [26] was 12.5 to 50 µg/mL (≈ 41.6 to 166 µM) in each case. Turning to `O=C1C=C/C(=C\c2cccc([N+](=O)[O-])c2)O1`, the EC50 in data set [6], in data set [7] and in [8] was 5.9 to 21 µg/mL (≈ 27.2 to 96.7 µM) each time. As usually defined, the IC90 is the concentration needed for an effect of 90%. On to `COc1cc(/C=C2\C=C(c3cccc(Br)c3)OC2=O)ccc1OC(C)=O`, for which, in data set [27], half-maximal inhibition (IC50) was put at 5.05 µg/mL (≈ 12.2 µM) and the IC90 turned out to be 7.85 µg/mL (≈ 18.9 µM). `CC(=O)OCC1C=C(c2cccc(Cl)c2)C(=O)O1` (configuration not stated): in [18], the minimal inhibitory concentration (MIC) came out at 1 µg/mL (≈ 3.75 µM).
